Results published in US11366103B2, “Multi-well micropatterning by ablation” (Massachusetts Institute of Technology, priority 2006, dated 2022).
Where two headings read alike, the source gives them in different places.

Tests used:
[1] = target: T1, CYP2A6 (Homo sapiens, UniProt P11509)
T1 sequence (P11509 1-494): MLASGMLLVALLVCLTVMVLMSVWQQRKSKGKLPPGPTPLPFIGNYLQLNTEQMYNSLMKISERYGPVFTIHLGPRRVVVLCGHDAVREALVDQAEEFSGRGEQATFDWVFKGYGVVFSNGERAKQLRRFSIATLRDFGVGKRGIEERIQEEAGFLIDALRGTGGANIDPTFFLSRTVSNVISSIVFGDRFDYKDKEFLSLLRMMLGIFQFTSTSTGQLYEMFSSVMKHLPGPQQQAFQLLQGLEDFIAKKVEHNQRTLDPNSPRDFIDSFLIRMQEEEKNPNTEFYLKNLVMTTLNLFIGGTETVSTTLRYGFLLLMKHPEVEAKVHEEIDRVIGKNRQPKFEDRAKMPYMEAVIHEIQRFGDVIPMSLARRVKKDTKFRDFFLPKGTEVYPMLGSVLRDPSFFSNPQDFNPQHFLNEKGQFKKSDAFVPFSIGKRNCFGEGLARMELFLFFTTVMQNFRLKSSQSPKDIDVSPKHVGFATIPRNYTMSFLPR

[2] = tested on: CYP3A; assay: Inhibition of BFC dealkylation in rat co-cultures; conditions: BFC in the presence of ketoconazole
[3] = tested on: micropatterned co-cultures of primary human hepatocytes and 3T3-J2 fibroblasts
Procedure: Mitochondrial toxicity was evaluated using the MTT assay. […] All data were normalized to a vehicle-only control. […] Tissues were dosed repeatedly every 48 hours. All data was normalized to mitochondrial activity in untreated cultures (100% activity).
In order to assess the utility of micropatterned co-cultures for toxicity screening, the acute and chronic toxicity of model hepatotoxins was quantified. […] Establishment of liver tissue that is stable over several weeks is crucial for evaluating chronic toxicity due to repeated exposures.
Cultures were incubated with various concentrations of compounds dissolved in culture medium for 24 hours (acute toxicity) or extended time periods (chronic toxicity, 1-9 days). Cell viability was subsequently measured via the MTT (3-(4,5-dimethylthiazol-2-yl)-2,5-diphenyl tetrazolium bromide; Sigma) assay, which involves cleavage of the tetrazolium ring by mitochondrial dehydrogenase enzymes to form a purple precipitate. MTT was added to cells in DMEM without phenol red at a concentration of 0.5 mg/mL. After an incubation time of 1 hour, the purple precipitate was dissolved in a 1:1 solution of DMSO and Isopropanol. The absorbance of the solution was measured at 570 nm (SpectraMax spectrophotometer, Molecular Devices, Sunnyvale, Calif.).

[4] = tested on: CYP2A; assay: Coumarin 7-hydroxylation in micropatterned rat co-cultures; assay type: in vitro ADME
Source text: (§1) FIGS. 33A-33C depict a comparison of Phase I- and Phase II-mediated substrate metabolism in human and rat co-cultures. Micropatterned cultures with either primary human or primary rat hepatocytes were created using the stencil-based process. Subsequent addition of 3T3-J2 fibroblasts created co-cultures. […] Data from a single representative day is shown.
(§2) Significant variations in hepatocellular functions (i.e. CYP450 enzymes) across different species have been implicated in the inability of animal models to adequately predict adverse outcomes in clinical trials involving humans. Nonetheless, studies in live animals are required by the FDA since they provide valuable in vivo data in a preclinical setting. Therefore, the selection of an animal species (i.e. rat, mouse, monkey, guinea pig) in which the liver-specific metabolism and toxicity of a particular candidate drug are similar to that seen in humans is crucial for clinical success. In vitro human and animal models that closely resemble in-vivo functionality may find use in such a selection process. […] For instance, BFC was dealkylated in rat co-cultures at a rate (pmoles/min/10^6 cells) that was ˜18 fold greater than the rate seen in human co-cultures.
Spent media was stored at −20° C.

[5] = target: T2, CYP2A (Homo sapiens, UniProt P11509); assay: Coumarin 7-hydroxylation in micropatterned human co-cultures; assay type: in vitro ADME
T2 construct: endogenous in cells; host or cells: primary human hepatocytes co-cultured with murine 3T3-J2 fibroblasts
T2 sequence (P11509 1-494): T1 sequence (P11509 1-494)
Source text: as §1, §2

[6] = tested on: co-cultures of primary rat hepatocytes and 3T3-J2 fibroblasts; conditions: for viability relative to untreated controls: 1 mM
Procedure: Toxicity of pharmaceuticals due to chronic exposure is clinically relevant. Since hepatocyte culture models utilized in the pharmaceutical industry lose viability and phenotypic functions within a few days, toxicity due to repeated drug exposures over days or weeks cannot be evaluated. […] Co-cultures were incubated with varying doses of toxins dissolved in culture medium over several days. Mitochondrial activity (MTT assay, see methods) was evaluated at different time points to assess viability in co-cultures.
Pure hepatocyte monolayers rapidly lose phenotypic functions and thus represent an ‘unstable’ model of the liver. […] The objective here was to compare toxicity of model Hepatotoxins in pure hepatocyte monolayers and co-cultures. Pure hepatocyte monolayers (Day 2 of culture) or hepatocyte-fibroblast co-cultures (Day 13) prepared from the same rat liver were treated with Hepatotoxins for 24 hours, after which viability was assessed via the MTT assay.
All chemicals were purchased from Sigma. In order to evaluate the acute toxicity of compounds, cultures were incubated with various concentrations of compounds dissolved in culture medium for 24 hours. For chronic studies, culture media with fresh Hepatotoxins was added every 2 days. Cell viability at different time points was subsequently measured via the MTT assay.

[7] = tested on: pure hepatocyte monolayers; conditions: rat, 24 h; for viability relative to untreated controls: 1 mM
[8] = tested on: CYP450 enzymes; assay: CYP450-mediated dealkylation of BFC and MFC in micropatterned rat co-cultures; assay type: in vitro ADME
Procedure: Therefore, in order to improve the signal-to-noise ratio, levels of CYP1A was ‘induced’ by pre-incubating co-cultures with 3 μM 3-Methylcholanthrene (3-MC) for 3 days prior to assessment of substrate metabolism. […] ER and MR are fluorimetric substrates specific for CYP1A enzymes. […] Use of non-specific substrates provides for an ‘average’ value of CYP450 activity, and is useful to determine whether CYP450 enzymes are functional in a particular system. In FIG. 22A, co-cultures were able to successfully dealkylate BFC and MFC into 7-HFC. […] CYP450 enzymes are oxido-reductases that are part of the Phase I metabolic pathway in hepatocytes. The phase II family of enzymes, on the other hand, is typically involved in the conjugation of highly polar moieties (i.e. sulfate group, glucuronic acid) to xenobiotics to make them water-soluble for excretion out of the body via bile or through the kidneys. A useful substrate for evaluating conjugation reactions is the fluorescent substrate, 7-Hydroxycoumarin (7-HC), which gets modified to non-fluorescent compounds, 7-HC-Glucuronide and 7-HC-Sulfate. The level of conjugation can then be quantified by using bacterial-derived β-glucuronidase and aryl-sulfatase enzymes to ‘deconjugate’ the Phase II products and recover 7-HC fluorescence. In our micropatterned rat co-cultures, we observed time-dependent conjugation of 7-HC by Phase-II enzymes (FIG. 22B). […]

[9] = tested on: CYP1A
Procedure: Cultures were treated for 3-4 days before incubation with fluorometric or conventional CYP450 substrates. All data was normalized to vehicle-only controls (fold change of 1). […] Substrate/inhibitor combinations: BFC/ketoconazole (CYP3A4), MFC/sulfaphenazole (CYP2C9), Coumarin/methoxsalen (CYP2A6), and 7-Hydroxycoumarin/Salicylamide (Glucuronidation). […] Data were normalized to vehicle-only controls.
Stock solutions of prototypic CYP450 inducers (Sigma) were made in Dimethylsulfoxide (DMSO), except for Phenobarbital, which was dissolved in water. […] Control cultures were treated with vehicle (DMSO) alone for calculations of fold induction. To enable comparisons across inducers, DMSO levels were kept constant at 0.1% (v/v) for all conditions.

[10] = tested on: CYP1A2; assay: Dose and time-dependent CYP1A2 induction in micropatterned co-cultures; conditions: incubation for 1 or 3 days

COc1c2occc2cc2ccc(=O)oc12 [Methoxsalen]
inhibition of CYP2A6 activity [1]: dose-dependent inhibition

CC(=O)N1CCN(c2ccc(OCC3COC(Cn4ccnc4)(c4ccc(Cl)cc4Cl)O3)cc2)CC1 (centres unmarked) [ketoconazole]
inhibition of BFC dealkylation [2]: ~33%

[Cd] [cadmium]
shape of dose-dependent acute toxicity profile ([3]; 24 hrs exposure, MTT): relatively linear toxic profile | TC50 relative to other compounds ([3]; concentration producing 50% reduction in mitochondrial activity (MTT) after 24 hours exposure): three orders-of-magnitude lower than the TC50 values for aspirin and caffeine

O=c1ccc2ccccc2o1 [coumarin]
coumarin hydroxylation [4]: unable to hydroxylate coumarin | rate of coumarin hydroxylation [5]: greater than 6 pmol/min/10^6 cells

CN(C)CCN(Cc1cccs1)c1ccccn1 [methapyrilene]
relative toxicity in pure monolayers versus co-cultures [6]: more toxic to pure monolayers as compared to co-cultures | TC50 ([6]; rat, 24 h): 1400 to 1600 µM | viability relative to untreated controls ([6]; rat, 24 h): greater than 80% | viability relative to untreated controls [7]: less than 6%

O=c1cc(C(F)(F)F)c2ccc(OCc3ccccc3)cc2o1 [BFC]
rate of BFC metabolism relative to rate of MFC metabolism ([8]; rat co-cultures, day 14): ~12 fold | rate of BFC dealkylation in rat relative to human co-cultures ([8]; rat, human): ~18 fold

COc1ccc(CN(CCN(C)C)c2ccccn2)cc1 [pyrilamine]
relative toxicity in pure monolayers versus co-cultures [6]: more toxic to pure monolayers as compared to co-cultures | TC50 ([6]; rat, 24 h): 1000 to 1200 µM | viability relative to untreated controls ([6]; rat, 24 h): greater than 80% | TC50 ([6]; rat, 7 days): ~200 µM | viability relative to untreated controls [7]: less than 6%

COc1ccc2[nH]c([S+]([O-])Cc3ncc(C)c(OC)c3C)nc2c1 (centres unmarked) [Omeprazole]
CYP1A induction, effectiveness in human over rat models [9]: 8 fold

O=c1cc(-c2ccccc2)oc2ccc3ccccc3c12 [β-Naphthoflavone]
induction of CYP1A2 activity [10]: induced CYP1A2 activity in a dose and time-dependent manner

Cc1c(C)c2c(c(C)c1O)CCC(C)(COc1ccc(CC3SC(=O)NC3=O)cc1)O2 (centres unmarked) [troglitazone]
chronic toxicity [3]: dose and time-dependent toxicity | relative toxicity in pure monolayers versus co-cultures [6]: more toxic to co-cultures as compared to pure monolayers | reduction of viability ([6]; rat, 24 h, 170 μM): ~44% | concentration giving ~44% reduction of viability [7]: 227 µM
